These molecules were tested against T1, HCV NS3/4A protease complex (Hepatitis C virus genotype 1a, UniProt P27958, C1454S/C1711G) (assay: FRET peptide assay to monitor HCV NS3/4A proteolytic activity). Conditions: not given.
T1 construct: recombinant HCV NS3/4A protease complex (amino acids 1027 to 1711); inferred from the pET21b vector and Ni-NTA purification; made in house; host or cells: Escherichia coli BL21 (DE3)
T1 sequence (P27958 1027-1711 C1454S/C1711G, one chain of several): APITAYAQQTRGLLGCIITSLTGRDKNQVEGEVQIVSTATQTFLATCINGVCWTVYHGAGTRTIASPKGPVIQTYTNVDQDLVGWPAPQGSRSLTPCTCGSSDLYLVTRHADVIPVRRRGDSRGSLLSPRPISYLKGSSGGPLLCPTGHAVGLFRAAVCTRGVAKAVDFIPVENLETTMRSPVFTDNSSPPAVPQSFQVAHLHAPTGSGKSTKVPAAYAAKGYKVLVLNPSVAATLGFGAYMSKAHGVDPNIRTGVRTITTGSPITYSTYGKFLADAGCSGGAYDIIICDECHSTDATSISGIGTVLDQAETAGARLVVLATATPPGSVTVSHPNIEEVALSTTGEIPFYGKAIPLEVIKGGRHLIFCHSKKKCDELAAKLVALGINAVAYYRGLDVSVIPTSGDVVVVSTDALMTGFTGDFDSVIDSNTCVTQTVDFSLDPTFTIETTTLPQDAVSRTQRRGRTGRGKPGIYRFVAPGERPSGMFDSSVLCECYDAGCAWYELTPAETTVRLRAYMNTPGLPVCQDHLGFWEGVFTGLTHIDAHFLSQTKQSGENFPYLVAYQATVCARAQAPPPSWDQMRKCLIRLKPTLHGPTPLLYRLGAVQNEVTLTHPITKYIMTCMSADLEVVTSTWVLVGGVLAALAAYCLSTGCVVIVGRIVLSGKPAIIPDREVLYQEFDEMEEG
Format: biochemical
Excerpt: HCV NS3 protease complexes, derived from the BMS strain, H77 strain or J4L6S strain, were generated, as described below. These purified recombinant proteins were generated for use in a homogeneous assay (see below) to provide an indication of how effective compounds of the present disclosure would be in inhibiting HCV NS3 proteolytic activity.
The H77 and J4L6S strains were used for production of recombinant NS3/4A protease complexes. DNA encoding the recombinant HCV NS3/4A protease complex (amino acids 1027 to 1711) for these strains was manipulated as described by P. Gallinari et al. (see Gallinari P, Paolini C, Brennan D, Nardi C, Steinkuhler C, De Francesco R. Biochemistry. 38(17):5620-32, (1999)). Briefly, a three-lysine solubilizing tail was added at the 3′-end of the NS4A coding region. The cysteine in the P1 position of the NS4A-NS4B cleavage site (amino acid 1711) was changed to a glycine to avoid the proteolytic cleavage of the lysine tag. Furthermore, a cysteine to serine mutation was introduced by PCR at amino acid position 1454 to prevent the autolytic cleavage in the NS3 helicase domain. The variant DNA fragment was cloned in the pET21b bacterial expression vector (Novagen) and the NS3/4A complex was expressed in Escherichia coli strain BL21 (DE3) (Invitrogen) following the protocol described by P. Gallinari et al. (see Gallinari P, Brennan D, Nardi C, Brunetti M, Tomei L, Steinkuhler C, De Francesco R., J Virol. 72(8):6758-69 (1998)) with modifications. Briefly, the NS3/4A protease complex expression was induced with 0.5 millimolar (mM) Isopropyl β-D-1-thiogalactopyranoside (IPTG) for 22 hours (h) at 20° C. A typical fermentation (1 Liter (L)) yielded approximately 10 grams (g) of wet cell paste. The cells were resuspended in lysis buffer (10 mL/g) consisting of 25 mM N-(2-Hydroxyethyl)Piperazine-N′-(2-Ethane Sulfonic acid) (HEPES), pH 7.5, 20% glycerol, 500 mM Sodium Chloride (NaCl), 0.5% Triton X-100, 1 microgram/milliliter (“μg/mL”) lysozyme, 5 mM Magnesium Chloride (MgCl2), 1 μg/ml DnaseI, 5 mM β-Mercaptoethanol (βME), Protease inhibitor-Ethylenediamine Tetraacetic acid (EDTA) free (Roche), homogenized and incubated for 20 minutes (min) at 4° C. The homogenate was sonicated and clarified by ultra-centrifugation at 235000 g for 1 hour (h) at 4° C. Imidazole was added to the supernatant to a final concentration of 15 mM and the pH adjusted to 8.0. The crude protein extract was loaded on a Nickel-Nitrilotriacetic acid (Ni-NTA) column pre-equilibrated with buffer B (25 mM HEPES, pH 8.0, 20% glycerol, 500 mM NaCl, 0.5% Triton X-100, 15 mM imidazole, 5 mM βME). The sample was loaded at a flow rate of 1 ml/min. The column was washed with 15 column volumes of buffer C (same as buffer B except with 0.2% Triton X-100). The protein was eluted with 5 column volumes of buffer D (same as buffer C except with 200 mM Imidazole).
NS3/4A protease complex-containing fractions were pooled and loaded on a desalting column Superdex-S200 pre-equilibrated with buffer D (25mM HEPES, pH 7.5, 20% glycerol, 300 mM NaCl, 0.2% Triton X-100, 10 mM βME). Sample was loaded at a flow rate of 1 mL/min. NS3/4A protease complex-containing fractions were pooled and concentrated to approximately 0.5 mg/ml. The purity of the NS3/4A protease complexes, derived from the BMS, H77 and J4L6S strains, were judged to be greater than 90% by SDS-PAGE and mass spectrometry analyses. The enzyme was stored at −80° C., thawed on ice and diluted prior to use in assay buffer.
The purpose of this in vitro assay was to measure the inhibition of HCV NS3 protease complexes, derived from the BMS strain, H77 strain or J4L6S strain, as described above, by compounds of the present disclosure. This assay provides an indication of how effective compounds of the present disclosure would be in inhibiting HCV NS3 proteolytic activity.
In order to monitor HCV NS3/4A protease activity, an NS3/4A peptide substrate was used. […]
`CO[C@@]12C[C@@H](C(=O)N[C@]3(C(=O)NS(=O)(=O)C4CC4)C[C@H]3C3CC3)N(C1)C(=O)[C@H](C(C)(C)C)NC(=O)OCCCCCCc1ccc3ccc2cc3c1` [Example 31] was tested, and the IC50 was 1 to 10 nM.

Same assay, conditions: HCV NS3/4A protease complex; strain not stated; class symbols; read-out: IC50
`COc1cc2ccc3cc2cc1CCCCOC(=O)N[C@@H](C(C)(C)C)C(=O)N1C[C@@]3(OC)C[C@H]1C(=O)N[C@]1(C(=O)NS(=O)(=O)C2CC2)C[C@H]1C1CC1` [Example 2] showed an IC50 of 11 to 12 nM. `C=C[C@@H]1C[C@]1(NC(=O)[C@@H]1C[C@]2(OC)CN1C(=O)[C@H](C(C)(C)C)NC(=O)OCCCCc1cc3cc2ccc3cc1OC)C(=O)NS(=O)(=O)C1CC1` [Example 3] gave an IC50 of 1 to 10 nM. Work on `C=C[C@@H]1C[C@]1(NC(=O)[C@@H]1C[C@]2(OC)CN1C(=O)[C@H](C(C)(C)C)NC(=O)OCCCCCc1cc3cc2ccc3cc1OC)C(=O)NS(=O)(=O)C1CC1` [Example 5] yielded an IC50 of 1 to 10 nM. Work on `COc1cc2ccc3cc2cc1CCCCCOC(=O)N[C@@H](C(C)(C)C)C(=O)N1C[C@@]3(OC)C[C@H]1C(=O)N[C@]1(C(=O)NS(=O)(=O)C2CC2)C[C@H]1C1CC1` [Example 6] yielded an IC50 of 1 to 10 nM. For `C=C[C@@H]1C[C@]1(NC(=O)[C@@H]1C[C@]2(OC)CN1C(=O)[C@H](C(C)(C)C)NC(=O)OCCCCCCCc1cc3cc2ccc3cc1OC)C(=O)NS(=O)(=O)C1CC1` [Example 20], the IC50 was 11 to 12 nM. Molecule `COc1cc2ccc3cc2cc1CCCCCCCOC(=O)N[C@@H](C(C)(C)C)C(=O)N1C[C@@]3(OC)C[C@H]1C(=O)N[C@]1(C(=O)NS(=O)(=O)C2CC2)C[C@H]1C1CC1` [Example 21] has an IC50 of 21 to 3200 nM. Molecule `COc1cc2ccc3cc2cc1CCCCCCCCOC(=O)N[C@@H](C(C)(C)C)C(=O)N1C[C@@]3(OC)C[C@H]1C(=O)N[C@]1(C(=O)NS(=O)(=O)C2CC2)C[C@H]1C1CC1` [Example 22] has an IC50 of 1 to 10 nM. Work on `C=C[C@@H]1C[C@]1(NC(=O)[C@@H]1C[C@]2(OC)CN1C(=O)[C@H](C(C)(C)C)NC(=O)OCCCCCCCCc1cc3cc2ccc3cc1OC)C(=O)NS(=O)(=O)C1CC1` [Example 23] yielded an IC50 of 1 to 10 nM. `C=C[C@@H]1C[C@]1(NC(=O)[C@@H]1C[C@]2(OC)CN1C(=O)[C@H](C(C)(C)C)NC(=O)OCCCCCCc1cc2cc2ccccc12)C(=O)NS(=O)(=O)C1CC1` [Example 24] gave an IC50 of 1 to 10 nM. `COc1cc2ccc3cc2cc1CCCCCCOC(=O)N[C@@H](C(C)(C)C)C(=O)N1C[C@@]3(O)C[C@H]1C(=O)N[C@]1(C(=O)NS(=O)(=O)C2CC2)C[C@H]1C1CC1` [Example 26] was tested, and the IC50 was 1 to 10 nM. In the case of `COc1cc2ccc3cc2cc1CCCC(C)(C)CCOC(=O)N[C@@H](C(C)(C)C)C(=O)N1C[C@@]3(OC(=O)N(C)C)C[C@H]1C(=O)N[C@]1(C(=O)NS(=O)(=O)C2CC2)C[C@H]1C1CC1` [Example 27], the IC50 is reported as 1 to 10 nM. In the case of `COCO[C@@]12C[C@@H](C(=O)N[C@]3(C(=O)NS(=O)(=O)C4CC4)C[C@H]3C3CC3)N(C1)C(=O)[C@H](C(C)(C)C)NC(=O)OCCC(C)(C)CCCc1cc3cc2ccc3cc1OC` [Example 28], the IC50 is reported as 1 to 10 nM. `C=C[C@@H]1C[C@]1(NC(=O)[C@@H]1C[C@]2(OC)CN1C(=O)[C@H](C(C)(C)C)NC(=O)OCCCCCCc1cc3cc2ccc3cc1N(C)C)C(=O)NS(=O)(=O)C1CC1` [Example 29] was tested, and the IC50 was 1 to 10 nM. Work on `CO[C@@]12C[C@@H](C(=O)N[C@]3(C(=O)NS(=O)(=O)C4CC4)C[C@H]3C3CC3)N(C1)C(=O)[C@H](C(C)(C)C)NC(=O)OCCCCCCc1cc3cc2ccc3cc1N(C)C` [Example 30] yielded an IC50 of 1 to 10 nM. Molecule `COc1c2cc3cc(ccc3c1Br)[C@]1(OC)C[C@@H](C(=O)N[C@]3(C(=O)NS(=O)(=O)C4CC4)C[C@H]3C3CC3)N(C1)C(=O)[C@H](C(C)(C)C)NC(=O)OCCC(C)(C)CCC2` [Example 33] has an IC50 of 11 to 12 nM. Work on `COc1ccc2ccc3cc2c1CCCCCOC(=O)N[C@@H](C(C)(C)C)C(=O)N1C[C@@]3(OC)C[C@H]1C(=O)N[C@]1(C(=O)NS(=O)(=O)C2CC2)C[C@H]1C1CC1` [Example 36] yielded an IC50 of 21 to 3200 nM. Work on `COc1ccc2ccc3cc2c1CCCCOC(=O)N[C@@H](C(C)(C)C)C(=O)N1C[C@@]3(OC)C[C@H]1C(=O)N[C@]1(C(=O)NS(=O)(=O)C2CC2)C[C@H]1C1CC1` [Example 37] yielded an IC50 of 21 to 3200 nM. `COc1cc2ccc3cc2cc1CCCC(C)(C)CCOC(=O)N[C@@H](C(C)C)C(=O)N1C[C@@]3(OC)C[C@H]1C(=O)N[C@]1(C(=O)NS(=O)(=O)C2CC2)C[C@H]1C1CC1` [Example 38] showed an IC50 of 1 to 10 nM. `COc1cc2ccc3cc2cc1CCCC(C)(C)CCOC(=O)N[C@@H](C1CCOCC1)C(=O)N1C[C@@]3(OC)C[C@H]1C(=O)N[C@]1(C(=O)NS(=O)(=O)C2CC2)C[C@H]1C1CC1` [Example 39] showed an IC50 of 1 to 10 nM. `COc1cc2ccc3cc2cc1CCCC(C)(C)CCNC(=O)N[C@@H](C(C)(C)C)C(=O)N1C[C@@]3(OC)C[C@H]1C(=O)N[C@]1(C(=O)NS(=O)(=O)C2CC2)C[C@H]1C1CC1` [Example 40] showed an IC50 of 1 to 10 nM. `COc1cc2ccc3cc2cc1CCCCCCCC(=O)N[C@@H](C(C)(C)C)C(=O)N1C[C@@]3(OC)C[C@H]1C(=O)N[C@]1(C(=O)NS(=O)(=O)C2CC2)C[C@H]1C1CC1` [Example 41] gave an IC50 of 1 to 10 nM.

Same assay, conditions: HCV NS3/4A protease complex; strain not stated; numeric values; read-out: IC50
`C=C[C@@H]1C[C@]1(NC(=O)[C@@H]1C[C@]2(OC)CN1C(=O)[C@H](C(C)(C)C)NC(=O)OCCCCCc1cc2cc2ccccc12)C(=O)NS(=O)(=O)C1CC1` [Example 25] was tested, and the IC50 was 240 nM. With `COc1c2cc3cc(ccc3c1Cl)[C@]1(OC)C[C@@H](C(=O)N[C@]3(C(=O)NS(=O)(=O)C4CC4)C[C@H]3C3CC3)N(C1)C(=O)[C@H](C(C)(C)C)NC(=O)OCCC(C)(C)CCC2` [Example 32] the IC50 was 25 nM. In the case of `COc1cc2ccc3cc2cc1CCCC1(CCOC(=O)N[C@@H](C(C)(C)C)C(=O)N2C[C@@]3(OC)C[C@H]2C(=O)N[C@]2(C(=O)NS(=O)(=O)C3CC3)C[C@H]2C2CC2)CC1` [Example 34], the IC50 is reported as 1 nM. Molecule `COc1ccc2ccc3cc2c1CCCCCCOC(=O)N[C@@H](C(C)(C)C)C(=O)N1C[C@@]3(OC)C[C@H]1C(=O)N[C@]1(C(=O)NS(=O)(=O)C2CC2)C[C@H]1C1CC1` [Example 35] has an IC50 of 413 nM.
